Counter-ions that a name gives are not always drawn.
System: 60 cancer cell lines (NCI 60 cancer cell line series)
Test: NCI-DTP in vitro cancer screen, sulforhodamine B (SRB) growth inhibition, 48 hour exposure
Assay type: cell-based, human
Experimental: Cancer Cell Line Preparation. Sixty cancer cell lines were obtained from the National Cancer Institute Developmental Therapeutics Program (NCI-DTP). Procedures for growing cells and testing compounds have been described previously (Scudiero et al., Cancer Res. 1988, 48:4827-4833; Stinson et al., Anticancer Res.; Myers et al., Electrophoresis 1997, 18:647-653). Cells are plated on day 0 at a density individualized for each cell line so that they will generally be sub-confluent at the end of the assay period. On day 1, a compound is added in the format for a duplicate-well, 5-dose, ten-fold interval dose response study.
No-drug, no-cell and no-growth controls are included. On day 3 the cells are processed for staining with sulforhodamine B (SRB), which reflects the amount of cell mass present at the end of a 48 hour exposure to the test agent. From dose response curves based on the SRB data, various parameters can be determined. […] More precisely, the quantity used in the calculation to be described is the potency measure −log{GI50}.
Activity database (A). […] This subset of compounds was selected from the larger 23,000 compound database available from the DTP. The compounds were selected on the basis of their known mechanism of action and chemical structure. The average potency −log{GI50} was extracted from the comma-delimited text files available through the Web at http://www.nci.nih.gov/intra/lmp/jnwbio.html. Subsequently, these −log{GI50} values were inspected manually and classified as indicating either Low, Medium or High sensitivity to each compound.

**Q.** With `CC[C@]1(O)C[C@@H]2CN(CCc3c([nH]c4ccccc34)[C@@](C(=O)OC)(c3cc4c(cc3OC)N(C)[C@H]3[C@@](O)(C(=O)OC)[C@H](OC(C)=O)[C@]5(CC)C=CCN6CC[C@]43[C@@H]65)C2)C1` [Vinblastine sulfate] as the compound, how does the “classification of cell line as Low(1), Medium(2), High(3) sensitivity to compound” value (“classification of cell line” below) (Breast HS-578T CL5006) read?
**A.** 3

**Q.** What about the “classification of cell line” value (Breast MCF7/ADRr CL5002) of the same compound?
**A.** 1

**Q.** And the “classification of cell line” value (Breast MDA-MB-231 CL5005)?
**A.** 2

**Q.** What about the “classification of cell line” value (Breast MDA-MB-435 CL5011) of the same compound?
**A.** 3

**Q.** What about the “classification of cell line” value (Breast MDA-N CL5012) of the same compound?
**A.** 3

**Q.** What about the “classification of cell line” value (CNS SF-268 CL12014) of the same compound?
**A.** 2

**Q.** What about the “classification of cell line” value (CNS SF-295 CL12015) of the same compound?
**A.** 2

**Q.** And the “classification of cell line” value (CNS SF-539 CL12016)?
**A.** 2

**Q.** And the “classification of cell line” value (CNS SNB-19 CL12002)?
**A.** 2

**Q.** And the “classification of cell line” value (CNS U251(I) CL12009)?
**A.** 2

**Q.** What about the “classification of cell line” value (Colon HCC-2998 CL4002) of the same compound?
**A.** 2

**Q.** What about the “classification of cell line” value (Colon HCT-15 CL4015) of the same compound?
**A.** 1

**Q.** And the “classification of cell line” value (Colon KM12 CL4017)?
**A.** 2

**Q.** And the “classification of cell line” value (Colon SW-620 CL4009)?
**A.** 2

**Q.** What about the “classification of cell line” value (Leukemia CCRF-CEM(I) CL7003) of the same compound?
**A.** 2

**Q.** What about the “classification of cell line” value (Leukemia HL-60(I) CL7008) of the same compound?
**A.** 3

**Q.** And the “classification of cell line” value (Leukemia MOLT-4 CL7006)?
**A.** 2

**Q.** What about the “classification of cell line” value (Melanoma M14 CL10014) of the same compound?
**A.** 2

**Q.** And the “classification of cell line” value (Melanoma MALME-3M CL10002)?
**A.** 2

**Q.** And the “classification of cell line” value (Melanoma SK-MEL-2 CL10005)?
**A.** 2

**Q.** What about the “classification of cell line” value (Melanoma SK-MEL-5 CL10007) of the same compound?
**A.** 3

**Q.** What about the “classification of cell line” value (Melanoma SK-MEL-28 CL10008) of the same compound?
**A.** 2

**Q.** What about the “classification of cell line” value (Melanoma UACC-62 CL10020) of the same compound?
**A.** 3

**Q.** And the “classification of cell line” value (NSCLC A549/ATCC CL1004)?
**A.** 2

**Q.** And the “classification of cell line” value (NSCLC EKVX CL1008)?
**A.** 1

**Q.** What about the “classification of cell line” value (NSCLC HOP-62 CL1026) of the same compound?
**A.** 2

**Q.** What about the “classification of cell line” value (NSCLC HOP-92 CL1029) of the same compound?
**A.** 2

**Q.** What about the “sensitivity classification Low(1)/Medium(2)/High(3)” value (NSCLC NCI-H23(I) CL1001) of the same compound?
**A.** 2

**Q.** And the “classification of cell line” value (NSCLC NCI-H226 CL1013)?
**A.** 2

**Q.** What about the “sensitivity classification Low(1)/Medium(2)/High(3)” value (NSCLC NCI-H332M CL1017) of the same compound?
**A.** 2

**Q.** What about the “sensitivity classification Low(1)/Medium(2)/High(3)” value (NSCLC NCI-H460 CL1021) of the same compound?
**A.** 2

**Q.** What about the “sensitivity classification Low(1)/Medium(2)/High(3)” value (NSCLC NCI-H522 CL1003) of the same compound?
**A.** 3

**Q.** What about the “sensitivity classification Low(1)/Medium(2)/High(3)” value (Ovarian IGROV1 CL6010) of the same compound?
**A.** 2

**Q.** What about the “sensitivity classification Low(1)/Medium(2)/High(3)” value (Ovarian OVCAR-3 CL6001) of the same compound?
**A.** 3

**Q.** What about the “sensitivity classification Low(1)/Medium(2)/High(3)” value (Ovarian OVCAR-8 CL6005) of the same compound?
**A.** 2

**Q.** What about the “sensitivity classification Low(1)/Medium(2)/High(3)” value (Ovarian SK-OV-3 CL6011) of the same compound?
**A.** 2

**Q.** What about the “sensitivity classification Low(1)/Medium(2)/High(3)” value (Renal 786-0 CL9018) of the same compound?
**A.** 2

**Q.** And the “sensitivity classification Low(1)/Medium(2)/High(3)” value (Renal CAKI-1 CL9015)?
**A.** 2

**Q.** And the “sensitivity classification Low(1)/Medium(2)/High(3)” value (Renal RXF-393 CL9016)?
**A.** 2

**Q.** And the “sensitivity classification Low(1)/Medium(2)/High(3)” value (Renal SN12C CL9008)?
**A.** 2

**Q.** And the “sensitivity classification Low(1)/Medium(2)/High(3)” value (Renal TK10 CL9024)?
**A.** 1

**Q.** What about the “sensitivity classification Low(1)/Medium(2)/High(3)” value (Renal UO-31 CL9004) of the same compound?
**A.** 1

From patent US20030129629A1, “Methods and compositions for the identification, assessment, prevention, and therapy of human cancers” (Millennium Pharmaceuticals, Inc., priority 2000, published 2003)
